In ChEMBL document CHEMBL1201862, “PubChem BioAssay data set” (2004):
Values belong to the molecule of their own block, whether it stands above or below them. The source made the active and inactive calls.

How the values were obtained:
[1] = target: Mu-type opioid receptor (Homo sapiens, UniProt P35372); test: SAR Analysis of Antagonists of the MOR Receptor using an Image-Based Assay - Set 3. [Related pubchem assays (depositor defined):AID1777, AID1785, AID1786, AID1966, AID2133, AID2136, AID2284, AID2285, AID2420]; format: functional
[2] = target: Delta-type opioid receptor (Homo sapiens, UniProt P41143); test: SAR Analysis of Antagonists of the DOR Receptor using an Image-Based Assay - Set 3. [Related pubchem assays (depositor defined):AID1777, AID1785]; format: functional;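 further: U2OS cells expressing DOR1 and beta-arrestin GFP stimulated with 100 nM SNC80; imaging of GFP-tagged beta-arrestin moving into spots after receptor activation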
[3] = target: T1, Kappa-type opioid receptor (Homo sapiens, UniProt P41145); test: SAR analysis of small molecule antagonists of the kappa opioid receptor via a luminescent beta-arrestin assay - Set 3. [Related pubchem assays (depositor defined):AID1777, AID1778, AID1785, AID1786, AID1966, AID2133, AID2136, AID2285, AID2495]; format: functional
[4] = target: T1, Kappa-type opioid receptor; test: SAR analysis of Antagonists of the Kappa Opioid Receptor (KOR) using an Image-Based Assay - Set 3. [Related pubchem assays (depositor defined):AID1777, AID1785]; format: functional
[5] = target: Genome polyprotein (Hepatitis C virus, UniProt Q2Q167); test: disruption of hepatitis C core self-association – biochemical, TR-FRET, dose response (AID 2159); design: species or system Hepacivirus hominis;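 further: blocks dimerization of HCV core protein measured by TR-FRET between tagged core106 pairs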
[6] = target: T2, Runt-related transcription factor 1/Core-binding factor subunit beta (Homo sapiens, UniProt Q01196+Q13951); test: disruptors of Runt domain/CBFb-SMMHC interaction – biochemical, FRET, Cerulean-Runt, Venus-CBFb-SMMHC, uHTS, […] (AID 1434); format: protein assay
[7] = target: T2, Runt-related transcription factor 1/Core-binding factor subunit beta; test: Runt domain/CBFb-SMMHC interaction disruptors – biochemical, TR-FRET (AID 1438); format: protein assay
[8] = target: Hexokinase (Trypanosoma brucei, UniProt Q38C41); test: Confirmation assay for inhibitors of Trypanosoma brucei hexokinase 1-Analogue-first series. [Related pubchem assays (depositor defined):AID1430, AID1632, AID2516, AID2560, AID2579, AID2600, AID449725, AID492951]; format: functional
Chain of Hexokinase (Q38C41 whole entry): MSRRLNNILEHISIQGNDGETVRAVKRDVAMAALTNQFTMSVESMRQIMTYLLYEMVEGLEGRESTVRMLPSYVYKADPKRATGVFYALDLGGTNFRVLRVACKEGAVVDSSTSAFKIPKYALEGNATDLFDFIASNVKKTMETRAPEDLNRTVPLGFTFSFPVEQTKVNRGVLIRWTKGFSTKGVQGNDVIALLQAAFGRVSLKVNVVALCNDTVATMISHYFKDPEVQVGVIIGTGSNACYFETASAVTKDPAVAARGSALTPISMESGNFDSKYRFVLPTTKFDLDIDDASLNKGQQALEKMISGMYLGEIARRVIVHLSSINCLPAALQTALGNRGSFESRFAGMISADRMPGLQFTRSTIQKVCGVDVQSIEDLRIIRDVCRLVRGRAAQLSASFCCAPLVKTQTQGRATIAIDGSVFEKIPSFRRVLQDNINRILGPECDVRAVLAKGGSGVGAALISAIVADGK

T2 sequence (Q01196 whole entry, the tested form may be a part): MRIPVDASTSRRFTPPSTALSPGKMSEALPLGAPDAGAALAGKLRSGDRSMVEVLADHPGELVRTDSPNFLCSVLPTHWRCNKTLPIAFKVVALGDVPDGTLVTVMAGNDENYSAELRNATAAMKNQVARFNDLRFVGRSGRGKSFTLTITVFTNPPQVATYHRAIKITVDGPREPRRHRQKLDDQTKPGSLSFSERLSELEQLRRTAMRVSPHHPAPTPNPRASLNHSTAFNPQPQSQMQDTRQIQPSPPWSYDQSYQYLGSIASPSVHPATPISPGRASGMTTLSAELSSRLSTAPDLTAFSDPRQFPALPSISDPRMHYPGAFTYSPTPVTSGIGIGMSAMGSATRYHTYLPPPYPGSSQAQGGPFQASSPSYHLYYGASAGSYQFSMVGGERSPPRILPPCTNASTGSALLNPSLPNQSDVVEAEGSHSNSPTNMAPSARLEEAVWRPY
T2 sequence (Q13951 whole entry, the tested form may be a part): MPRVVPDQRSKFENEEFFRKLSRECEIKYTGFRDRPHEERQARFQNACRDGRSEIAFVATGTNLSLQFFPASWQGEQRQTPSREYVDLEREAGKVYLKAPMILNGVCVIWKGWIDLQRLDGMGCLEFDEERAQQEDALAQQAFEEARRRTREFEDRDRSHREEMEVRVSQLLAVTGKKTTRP
T1 sequence (P41145 whole entry): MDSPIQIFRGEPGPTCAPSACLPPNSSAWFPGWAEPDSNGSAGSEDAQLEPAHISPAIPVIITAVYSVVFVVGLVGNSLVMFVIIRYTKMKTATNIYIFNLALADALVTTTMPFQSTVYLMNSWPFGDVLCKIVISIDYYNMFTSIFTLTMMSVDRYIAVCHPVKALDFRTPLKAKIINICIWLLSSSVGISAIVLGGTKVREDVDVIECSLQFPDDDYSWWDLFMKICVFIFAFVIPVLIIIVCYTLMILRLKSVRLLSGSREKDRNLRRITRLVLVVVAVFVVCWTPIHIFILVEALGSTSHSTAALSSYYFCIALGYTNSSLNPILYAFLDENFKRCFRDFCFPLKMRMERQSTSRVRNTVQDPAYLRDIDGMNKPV
Chain of Delta-type opioid receptor (P41143 whole entry): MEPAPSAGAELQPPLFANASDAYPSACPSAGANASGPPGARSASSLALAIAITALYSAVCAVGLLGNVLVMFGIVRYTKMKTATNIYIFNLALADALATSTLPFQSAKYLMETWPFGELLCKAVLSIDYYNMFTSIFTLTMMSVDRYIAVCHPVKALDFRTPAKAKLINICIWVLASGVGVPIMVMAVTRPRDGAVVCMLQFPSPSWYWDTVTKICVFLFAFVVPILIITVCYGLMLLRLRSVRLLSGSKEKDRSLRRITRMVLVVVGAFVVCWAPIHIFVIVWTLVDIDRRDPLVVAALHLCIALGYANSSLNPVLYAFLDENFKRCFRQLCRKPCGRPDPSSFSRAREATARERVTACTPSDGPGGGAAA
Chain of Genome polyprotein (Q2Q167 whole entry, the tested form may be a part): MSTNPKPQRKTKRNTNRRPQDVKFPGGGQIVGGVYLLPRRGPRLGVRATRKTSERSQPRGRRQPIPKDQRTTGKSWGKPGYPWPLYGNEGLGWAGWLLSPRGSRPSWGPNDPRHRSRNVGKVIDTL
Chain of Mu-type opioid receptor (P35372 whole entry): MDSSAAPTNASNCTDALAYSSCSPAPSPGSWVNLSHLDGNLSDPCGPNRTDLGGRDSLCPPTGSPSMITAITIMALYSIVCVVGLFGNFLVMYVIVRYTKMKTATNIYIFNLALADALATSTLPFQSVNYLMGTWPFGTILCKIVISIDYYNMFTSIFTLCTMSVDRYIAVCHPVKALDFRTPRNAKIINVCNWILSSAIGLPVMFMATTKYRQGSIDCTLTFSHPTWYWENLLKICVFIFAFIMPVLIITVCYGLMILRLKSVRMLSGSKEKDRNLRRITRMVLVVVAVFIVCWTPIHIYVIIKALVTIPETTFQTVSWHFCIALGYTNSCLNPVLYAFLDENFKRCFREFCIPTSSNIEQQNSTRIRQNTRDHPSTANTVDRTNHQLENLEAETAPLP

IC50 [1]: > 32 µM (inactive) | IC50 [2]: > 32 µM (inactive) | IC50 [3]: 0.742 µM (active) | IC50 [4]: 0.173 µM (active)
Structure (SMILES): CCc1ccc(S(=O)(=O)NCc2ccc(C(=O)NCCN(Cc3ccc(C)cc3)C(C)C)cc2)cc1

Structure (SMILES): Cc1cccc(C(=O)/N=c2\c(C#N)cc3c(=O)n4cccc(C)c4nc3n2Cc2ccco2)c1
IC50 [5]: > 49.8 µM (not active) | IC50 [6]: 0.429 µM (active) | IC50 [7]: 6.54 µM (active)

Structure (SMILES): O=c1cc(-c2ccccc2)sn1-c1ccccc1
IC50 [8]: > 25 µM (inactive)
